The test system of experiment [1] is polymorphonuclear leukocyte (PMN) recruitment. Particulars: equimolar dose; cited from earlier work.
The subject of the next experiment is HPV tumorigenesis. To be noted: cited from earlier work.
Experiment [2] concerns CD4+ and CD8+ cells in the liver. To be noted: administration of either RvD1 or RvE1; cited from earlier work.
Experiment [3] deals with LLC cells. The experiment can be described thus: Metastatic LLC resection model, perioperative (neo-adjuvant) treatment. Type of experiment: in vivo, C57BL/6J male mice. To be noted: 5 mg/kg, i.p, Q6D, first dose 24 hours prior to surgery; compared to vehicle control. As to the method:
To investigate the efficacy of LTD dosing of bis RvE1 Mg-di-lysinate as neo-adjuvant therapy, a study was conducted in the metastatic LLC resection model with treatment initiated in the perioperative window. A total of fifteen (15) C57BL/6J male mice were injected subcutaneously with 1×10e6 living LLC cells. Once tumors reached approximately 1200-1500 mme3 in size, the mice were randomized (n=4-8 per group) to treatment with vehicle (SC, Q6D), bis RvE1 Mg-di-lysinate (300 ug/kg, SC, Q6D), or cisplatin (5 mg/kg, i.p, Q6D), followed by surgical resection of the tumors. The mice in the vehicle and cisplatin groups received an initial dose twenty-four (24) hours prior to surgery, and the mice treated with bis RvE1 Mg-di-lysinate received an initial dose two (2) hours prior to surgery. All mice were sacrificed on day 19 following the death of three mice in the vehicle control group on day 18.

The test system of experiment [4] is LLC cells. Briefly: Lewis lung carcinoma (LLC) model, with and without anti-PD1 or cisplatin. To be noted: monotherapy, 5 mg/kg, i.p, Q5D. The class given is in vivo, C57BL/6J male mice. As to the method: A representative compound of Formula IV, RvE1 magnesium dilysinate, was tested for efficacy in several mouse models of cancer, including the Panc2-H7 model of pancreatic cancer, the Lewis lung carcinoma (LLC) model, the MC38 model of colorectal cancer, and the B16F10 model of melanoma. These models are well established, highly tumorigenic syngeneic models in which murine cancer cell lines are injected subcutaneously (SC) into the dorsum of C57BL/6J mice. If left untreated, these tumors grow rapidly and lead to death or euthanasia, per protocol. As detailed below in Examples 1-9 and the accompanying figures, bis RvE1 Mg-di-lysinate (Compound 1) was unexpectedly effective as an anti-cancer agent in each of these model systems when administered in a less than daily (LTD) dosing regimen. […] Without being bound by any theory, the surprising efficacy of LTD dosing of resolvins in the cancer model systems described here may be the result of durable effects on the tumor microenvironment including changes in immune cell phenotype, vascularization, stromal phenotype, and antigen presentation, as well as durable effects on the T-cell compartment such as T-cell priming and increased tumor-infiltrating lymphocytes.
To expand our understanding of bis RvE1 Mg-di-lysinate as a cancer therapy that could be used in combination with other cancer therapies including immune checkpoint inhibitors, bis RvE1 Mg-di-lysinate monotherapy and in combination either anti-PD1 or cisplatin was investigated in the LLC model of non-small cell lung cancer, which is a model known to unresponsive to anti-PD1 therapy and moderately responsive to cisplatin. Yu et al., J Exp Clin Cancer Res. 2010; 29(1):46; Lechner et al., J Immunother. 2013; 36(9):477-489. A total of forty (40) C57BL/6J male mice were injected subcutaneously with 1×10e6 living LLC cells. […] In addition, bis RvE1 Mg-di-lysinate was evaluated in combination with anti-PD1 or cisplatin. […]

The subject of the next experiment is KPC cells. The experiment can be described thus: Orthotopic KPC model of pancreatic cancer, survival. The class given is in vivo, C57BL/6J male mice. The protocol:
To expand our understanding of less than daily (LTD) dosing of bis RvE1 Mg-di-lysinate as a cancer therapy that could be used in combination with chemotherapy, bis RvE1 Mg-di-lysinate (Compound 1) was investigated in the orthotopic KPC model of pancreatic cancer. A total of fifteen (15) C57BL/6J male mice were implanted orthotopically with 5×10e5 living KPC cells into the pancreas. The mice were randomized (n=7-8) to treatment with bis RvE1 Mg-di-lysinate (300 ug/kg, SC, Q6D) with or without gemcitabine (50 mg/kg, IP, Q3D, up to 6 doses) one day after tumor cell implantation.

For `CCC(=O)/C=C/C=C\C[C@@H](O)/C=C/C=C/C=C\[C@@H](O)CCCC(=O)O` [Compound 18-oxo-RvE1, 18-oxo-RvE1], the “activity in zymosan-induced peritonitis (PMN recruitment)” value in experiment [1] was “devoid of activity”.
In the case of `CC/C=C\C[C@H](O)/C=C/C=C\C=C\C=C\[C@@H](O)[C@@H](O)C/C=C\CCC(=O)O` [RvD1, 7S,8R,17S-trihydroxy-4Z,9E,11E,13Z,15E,19Z-docosahexaenoic acid], in the experiment on HPV tumorigenesis (in vivo), the “tumor infiltration levels of CD4+ and CD8+ T cells” value is “did not modify tumor infiltration levels of CD4+ and CD8+ T cells”. Further, the tumor progression result with HPV tumorigenesis (via modulated activity of tumor-associated neutrophils (PMN)) is “reduce tumor progression”. Further, the “levels of CD4+ and CD8+ cells in the liver” value in experiment [2] is “markedly downregulated levels of CD4+ and CD8+ cells in the liver”.
In the case of `CC[C@@H](O)/C=C/C=C\C[C@@H](O)/C=C/C=C/C=C\[C@@H](O)CCCC(=O)O` [RvE1, 5S,12R,18R-trihydroxy-6Z,8E,10E,14Z,16E-eicosapentaenoic acid], the “activity in zymosan-induced peritonitis (PMN recruitment)” value in experiment [1] was “potently reduced polymorphonuclear leukocyte (PMN) recruitment”. In addition, the “levels of CD4+ and CD8+ cells in the liver” value in experiment [2] is “markedly downregulated levels of CD4+ and CD8+ cells in the liver”.
For the compound `N.N.[Cl][Pt][Cl]` [cisplatin, reference compound], in the experiment with LLC cells [3], the “number of lung metastases” value is “failed to show a significant reduction” and the “number of mice with lymph node metastasis” value is reported as “failed to show a significant reduction”. Further, in the experiment on LLC cells [4], the “tumor volume (Day 11 vs Day 0)” value is recorded as “failed to demonstrate efficacy as monotherapy compared to placebo”.
Regarding `Nc1ccn([C@@H]2O[C@H](CO)[C@@H](O)C2(F)F)c(=O)n1` [gemcitabine, reference compound], the “mice alive as of the last observation (day 250)” value in the experiment on KPC cells (gemcitabine monotherapy group) was “zero of eight mice”. In addition, the mean survival in the experiment with KPC cells (gemcitabine monotherapy, 50 mg/kg, IP, Q3D, up to 6 doses) stood at 25 days.

Source of the values: patent US11986512B2, “Compositions and methods for cancer therapy” (Thetis Pharmaceuticals LLC, priority 2021, dated 2024).
